We go through 7 molecules from ChEMBL document CHEMBL1149799, “Bioactive peroxides as potential therapeutic agents” (Eur J Med Chem, 2008).

Usually IC50 stands for the midpoint of a concentration-inhibition curve. In general, MIC refers to the least concentration at which growth counts as inhibited. A higher MIC goes with weaker potency. By IC90 is commonly meant the point of the concentration-response curve where the effect stands at 90%. Low values mean greater potency, high ones weaker potency.

Values after ≈ are worked out from the molar mass of the structure shown. Active and inactive are the calls of the source. The calls are words filed in the database; no cut-off is given here.

A short description of assay [1]: Inhibition of human SKW3 cells adhesion to soluble ICAM1. It counts as functional, cell-based.
Assay [2] can be described thus: Cytotoxicity against mouse B16-F1cells. The following applies: B16-F1. It counts as functional, cell-based.
In a further assay the test system is MCF7. The assay is described as follows: Cytotoxicity against human MCF7 cells. It counts as functional, cell-based. To be noted: Homo sapiens, MCF7.
The next assay concerns HeLa. The assay is described as follows: Cytotoxicity against human HeLa cells. It counts as functional, cell-based.
The next assay relates to NCI-H460. The assay can be described thus: Cytotoxicity against human NCI-H460 cells. It counts as functional, cell-based. To be noted: Homo sapiens, NCI-H460.
The subject of assay [3] is SF-268. The assay is described as follows: Cytotoxicity against human SF268 cells. It is filed as functional, cell-based.
A further assay has as its system MIA PaCa-2. The assay can be described thus: Cytotoxicity against human MIA-PaCa2 cells.
The next assay concerns Candida albicans. The assay is described as follows: Antifungal activity against Candida albicans. It counts as functional.
The next assay deals with Aspergillus fumigatus. The assay is described as follows: Antifungal activity against Aspergillus fumigatus. It is filed as functional.
The test system of the next assay is A549. The assay is described as follows: Cytotoxicity against human A549 cells. It counts as functional, cell-based. The following applies: Homo sapiens, A549.
Another assay has as its system HT-29. The assay can be described thus: Cytotoxicity against human HT29 cells. It counts as functional, cell-based. The following applies: Homo sapiens, HT-29.
The next assay concerns Human alphaherpesvirus 1. The assay can be described thus: Antiviral activity against herpes simplex virus type-1. It counts as functional, organism-based.
For a further assay, the system named is P388. The assay can be described thus: Cytotoxicity against mouse P388 cells. It is filed as functional, cell-based. To be noted: Mus musculus, P388.
Assay [4] deals with Vesicular stomatitis virus. The assay can be described thus: Antiviral activity against Vesicular stomatitis virus. It counts as functional, organism-based.
Assay [5] has as its target Protein kinase C gamma type (Homo sapiens, UniProt P05129). The assay is described as follows: Agonist activity at protein kinase C gamma at 50 pg/mL. It is filed as functional.
The target in assay [6] is Protein kinase C delta type (Homo sapiens) (UniProt Q05655). The assay is described as follows: Agonist activity at protein kinase C delta at 50 pg/mL. It is filed as functional.
In assay [7] the target is Protein kinase C alpha type (Homo sapiens) (UniProt P17252). The assay is described as follows: Agonist activity at protein kinase C alpha at 50 pg/mL. It counts as functional.
Assay [8] addresses Protein kinase C epsilon type (Homo sapiens) (UniProt Q02156). The assay can be described thus: Agonist activity at protein kinase C epsilon at 50 pg/mL. It is filed as functional.
The target of assay [9] is Protein kinase C beta type (Homo sapiens) (UniProt P05771). The assay is described as follows: Agonist activity at protein kinase C beta2 at 50 pg/mL. It counts as functional.
Assay [10] shares this target. The assay is described as follows: Agonist activity at protein kinase C beta-1 at 50 pg/mL. It counts as functional.
The test system of assay [11] is SF-268. The assay can be described thus: Cytotoxicity against human SF268 cells at 30 uM. It counts as functional, cell-based.

Chain of Protein kinase C beta type (Homo sapiens) (P05771 2-671 limits assumed): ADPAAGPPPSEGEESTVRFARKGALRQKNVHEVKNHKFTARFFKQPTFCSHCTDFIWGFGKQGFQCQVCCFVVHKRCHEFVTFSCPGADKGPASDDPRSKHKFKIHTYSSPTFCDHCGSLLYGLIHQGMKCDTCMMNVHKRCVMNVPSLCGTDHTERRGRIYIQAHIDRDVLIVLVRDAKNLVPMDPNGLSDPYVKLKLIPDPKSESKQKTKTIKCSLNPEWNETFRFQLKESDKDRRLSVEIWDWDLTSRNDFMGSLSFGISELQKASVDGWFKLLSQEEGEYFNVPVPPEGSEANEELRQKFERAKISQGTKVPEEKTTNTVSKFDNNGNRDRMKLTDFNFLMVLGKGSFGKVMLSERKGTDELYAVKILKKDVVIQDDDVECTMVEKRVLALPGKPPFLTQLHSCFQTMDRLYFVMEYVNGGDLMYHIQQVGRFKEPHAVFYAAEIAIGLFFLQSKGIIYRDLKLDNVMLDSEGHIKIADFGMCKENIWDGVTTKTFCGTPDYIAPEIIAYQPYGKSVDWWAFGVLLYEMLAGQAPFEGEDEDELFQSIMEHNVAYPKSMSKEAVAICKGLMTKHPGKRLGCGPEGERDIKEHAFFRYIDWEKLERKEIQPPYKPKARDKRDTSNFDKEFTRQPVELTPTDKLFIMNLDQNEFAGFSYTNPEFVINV
Chain of Protein kinase C epsilon type (Homo sapiens) (Q02156 whole entry): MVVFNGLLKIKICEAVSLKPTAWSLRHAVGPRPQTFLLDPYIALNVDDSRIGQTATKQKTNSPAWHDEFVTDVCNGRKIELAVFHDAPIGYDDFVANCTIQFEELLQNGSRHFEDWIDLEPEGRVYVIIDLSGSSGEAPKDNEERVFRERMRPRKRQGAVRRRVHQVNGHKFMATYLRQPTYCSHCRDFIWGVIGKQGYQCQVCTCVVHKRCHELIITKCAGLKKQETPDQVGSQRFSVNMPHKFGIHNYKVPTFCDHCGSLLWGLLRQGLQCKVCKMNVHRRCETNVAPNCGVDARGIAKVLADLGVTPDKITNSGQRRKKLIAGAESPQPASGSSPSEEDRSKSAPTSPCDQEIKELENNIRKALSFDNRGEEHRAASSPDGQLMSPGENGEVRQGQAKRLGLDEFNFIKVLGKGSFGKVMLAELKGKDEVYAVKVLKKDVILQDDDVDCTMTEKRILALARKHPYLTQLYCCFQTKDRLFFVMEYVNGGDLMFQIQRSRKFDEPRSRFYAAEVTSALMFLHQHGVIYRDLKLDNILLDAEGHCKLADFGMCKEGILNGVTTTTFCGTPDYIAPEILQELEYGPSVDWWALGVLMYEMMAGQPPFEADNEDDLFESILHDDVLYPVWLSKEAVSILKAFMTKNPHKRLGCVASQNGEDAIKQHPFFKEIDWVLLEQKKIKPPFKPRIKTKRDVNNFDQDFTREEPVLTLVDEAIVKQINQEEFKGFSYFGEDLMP
Chain of Protein kinase C delta type (Homo sapiens) (Q05655 whole entry, looked up): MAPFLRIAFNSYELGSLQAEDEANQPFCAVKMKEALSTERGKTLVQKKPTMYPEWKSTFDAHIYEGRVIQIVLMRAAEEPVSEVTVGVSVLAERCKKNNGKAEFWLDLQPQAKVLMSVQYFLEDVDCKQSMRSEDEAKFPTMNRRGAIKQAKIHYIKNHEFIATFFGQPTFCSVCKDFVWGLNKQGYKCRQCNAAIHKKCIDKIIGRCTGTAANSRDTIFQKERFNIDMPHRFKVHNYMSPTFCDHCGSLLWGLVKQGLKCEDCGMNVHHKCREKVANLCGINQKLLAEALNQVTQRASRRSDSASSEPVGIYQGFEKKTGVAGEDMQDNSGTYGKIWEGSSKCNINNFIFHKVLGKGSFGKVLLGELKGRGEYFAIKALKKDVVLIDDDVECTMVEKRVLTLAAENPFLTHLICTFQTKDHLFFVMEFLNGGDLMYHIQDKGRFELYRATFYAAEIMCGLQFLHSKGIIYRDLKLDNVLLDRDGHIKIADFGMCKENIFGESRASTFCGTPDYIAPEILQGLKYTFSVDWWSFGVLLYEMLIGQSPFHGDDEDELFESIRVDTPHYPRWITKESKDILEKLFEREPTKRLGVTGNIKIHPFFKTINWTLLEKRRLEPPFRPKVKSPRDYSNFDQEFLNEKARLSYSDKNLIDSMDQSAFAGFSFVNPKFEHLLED

On to `Cc1ccc2c(c1O)C(=O)c1c(cc(O)c(C(=O)O)c1C)[C@]2(C)OO[C@@]1(C)c2cc(O[C@H]3O[C@@H](CO)[C@@H](O)[C@@H](O[C@@H]4O[C@H](CO)[C@H](O)[C@H](O)[C@H]4O)[C@@H]3O)c(C(=O)O)c(C)c2C(=O)c2c1ccc(C)c2O` [ADXANTHROMYCIN B], for which the IC50 in assay [1] worked out at 25 µg/mL (≈ 25.5 µM).

The molecule `COC(=O)C[C@H]1OO[C@](C)(C/C(C)=C/C=C/Cc2ccccc2)C[C@H]1C` [CAPUCINOATE A] showed an IC50 in assay [2] of 0.012 µg/mL (≈ 0.0335 µM).

In the case of `CC(=C/C(=O)O)/C=C/C=C(\C)[C@@H]1C=C2C(C)(C)CCC[C@]2(C)OO1`, the IC50 in the assay with MCF7 was determined as 2.7 µg/mL (≈ 8.12 µM); in the assay on HeLa, 2 µg/mL (≈ 6.02 µM); with NCI-H460, 2.1 µg/mL (≈ 6.32 µM); with SF-268 [3] (Homo sapiens, SF-268, read-out: IC50), 3.5 µg/mL (≈ 10.5 µM); in the assay on MIA PaCa-2 it was 1.7 µg/mL (≈ 5.11 µM).

Take `CC/C=C/C(CC)C/C=C/[C@@]1(CC)C[C@H](CC)[C@@H](CC(=O)O)OO1` (stereo partly specified): the MIC against Candida albicans was 5 µg/mL (≈ 14.8 µM). It took 5.6 µg/mL (≈ 16.5 µM) to reach the 90% level in the assay on Aspergillus fumigatus (IC90).

On to `C[C@H](C(=O)O)[C@@H]1CC[C@@](C)(CC[C@@]2(O)[C@H](C)CC[C@@]3(C)C(C)(C)CCC[C@]23C)OO1` [MYCAPEROXIDE B], for which the IC50 in the assay with A549 came to 0.5 µg/mL (≈ 1.18 µM); in the assay with HT-29, 0.5 µg/mL (≈ 1.18 µM); in the assay with Human alphaherpesvirus 1 it was 0.25 µg/mL (≈ 0.589 µM); in the assay on P388 it was 0.5 µg/mL (≈ 1.18 µM); in [4] it was 0.25 µg/mL (≈ 0.589 µM).

In the case of `CC(CCCCCCCCc1ccccc1)C[C@]1(C)C[C@]2(C)OC(=O)C[C@@H]2OO1` (stereo partly specified), the Activity in assay [5] stood at 9%; in assay [6], 9%; in assay [7], 19%; in assay [8], 38%; in [9], 27%; in assay [10], 13%.

Take `CC(=C/C(=O)O)/C=C/C=C(C)/C=C/[C@@H]1C=C2C(C)(C)CCC[C@]2(C)OO1`: the IC50 in the assay with MCF7 was 21.9 µg/mL (≈ 61.1 µM); with HeLa, 19.8 µg/mL (≈ 55.2 µM); in the assay on NCI-H460, 21 µg/mL (≈ 58.6 µM); in the assay on SF-268 [3] (sf-268) it was “Not Active”; with MIA PaCa-2, 13.9 µg/mL (≈ 38.8 µM). The result with SF-268 [11] was inactive.
